Experiments:
[1] = mn = molality of the nth substance listed, in mol/kg; settings: 75 kPa, Liquid; for viscosity: Capillary tube (Ostwald / Ubbelohde) method; for speed of sound: Frequency=3 MHz, Sing-around technique in a fixed-path interferometer; for mass density: Vibrating tube method
[2] = 75 kPa, Liquid; for viscosity: Capillary tube (Ostwald / Ubbelohde) method

[Cl-].[Na+] [sodium chloride] + O
[1]
Settings	mass density [kg/m3]	speed of sound [m/s]	viscosity [mPa·s]
293.15 K, m1 = 0.1502	1004.43	1492.5	1.011
293.15 K, m1 = 0.3004	1010.4	1502	1.018
293.15 K, m1 = 0.5002	1018.11	1514.4	1.034
293.15 K, m1 = 0.7001	1026.19	1526.9	1.059
298.15 K, m1 = 0.1502	1003.21	1506.2	0.891
298.15 K, m1 = 0.3004	1008.89	1515.3	0.908
298.15 K, m1 = 0.5002	–	1527.3	0.933
298.15 K, m1 = 0.7001	1024.85	1539.2	0.95
303.15 K, m1 = 0.1502	1001.74	1518.1	0.791
303.15 K, m1 = 0.3004	1007.39	1527	0.814
303.15 K, m1 = 0.5002	1015.58	1538.6	0.835
303.15 K, m1 = 0.7001	1023.12	1550.2	0.852
308.15 K, m1 = 0.1502	1000.1	–	0.712
308.15 K, m1 = 0.3004	1005.86	1537.1	0.738
308.15 K, m1 = 0.5002	–	1548.3	0.755
308.15 K, m1 = 0.7001	1021.53	1559.5	0.768
313.15 K, m1 = 0.1502	998.234	1537.6	0.645
313.15 K, m1 = 0.3004	1004.13	1545.7	0.665
313.15 K, m1 = 0.5002	1011.76	1556.5	0.687
313.15 K, m1 = 0.7001	–	1567.3	0.701

O [water]
[2]
Settings	viscosity [mPa·s]
293.15 K	1.003
298.15 K	0.89
303.15 K	0.798
308.15 K	0.72
313.15 K	0.653

Settings	speed of sound [m/s]
[2], 313.15 K, Frequency=3 MHz, Sing-around technique in a fixed-path interferometer	1529

O [water] + CCC(N)C(=O)O
[1], m2 = 0
Settings	mass density [kg/m3]	speed of sound [m/s]	viscosity [mPa·s]
293.15 K	–	–	1.003
298.15 K	–	–	0.89
303.15 K	–	–	0.798
308.15 K	994.063	–	0.72
313.15 K	–	1529	0.653

O [water] + [Cl-].[Na+]
[1], m2 = 0
Settings	mass density [kg/m3]	speed of sound [m/s]	viscosity [mPa·s]
293.15 K	–	–	1.003
298.15 K	–	–	0.89
303.15 K	–	–	0.798
308.15 K	994.063	–	0.72
313.15 K	–	1529	0.653

— the NIST ThermoML archive (doi:10.1016/j.jct.2016.09.040)
